The target in assay [1] is recombinant human PARP2 (Homo sapiens, UniProt Q9UGN5). As to the kind of experiment: PARP2 fluorescence polarization binding assay. To be noted: for IC50: binding IC50, GST-tagged PARP2 20 nM, PARPi-FL 3 nM; for inhibition at 10 µM: read-out: PARP2 % inh at 10 μM. As to the method:
Compounds of the present disclosure were tested in a PARP2 fluorescence polarization binding assay at Pharmaron (Beijing, P.R. China). In this biochemical assay, binding of test compound to recombinant human PARP2 reduces the amount of binding of a fluorescent probe, and consequently reduces the detected level of fluorescence polarization. Test compound stock solutions were prepared in DMSO and then serially diluted into 10 concentrations by 3-fold dilution in a 384-well plate using a TECAN EVO200. Alternatively, a single concentration was prepared. 60 nL of each dilution was transferred to the plate using an Echo550 (Labcyte), and then 10 μL 40 nM GST-tagged PARP2 (BPS Bioscience, Cat #80502), diluted in assay buffer (50 mM Tris pH 8.0, 0.001% Triton X-100, 10 mM MgCl2, 150 mM NaCl), was added to the plate. After a centrifugation at 1000 rpm for 1 min, the assay plate was incubated for 30 min at RT. 10 μL 6 nM PARPi-FL (TOCRIS, Cat #6461), diluted using assay buffer, was then added to the plate. […] After a centrifugation at 1000 rpm for 1 min, the assay plate was incubated for 4 h at RT. Samples in each well were read using an Envision instrument (Perkin-Elmer; Ex=480 nm Em=FITC FP-P pol 535 nm & FITC FP-S pol 535 nm). […] Binding IC50 values were calculated using XLFit (equation 201: […])^D))), where A=bottom, B=top, C=IC50, and D=slope) with a floating top and bottom for curves.
(In general: Fluorescence polarisation rises when a labelled molecule tumbles more slowly, as on binding a larger partner.)

Assay [2] deals with T1, PARP1 (Homo sapiens, UniProt P09874). As to the kind of experiment: PARP1 biochemical trapping assay (BPS PARPtrap). As to the method: Compounds of the present disclosure were tested in a PARP1 biochemical trapping assay at BPS Bioscience (San Diego, CA). PARP1 is known to bind damaged DNA through its DNA-binding domains. Binding to DNA activates PARP1, and in the presence of NAD+, PARP1 ribosylates itself (auto-ribosylation), leading to PARP1 dissociation from the DNA due to the accumulated negative charge of the ribosyl polymer. In the presence of some inhibitors, however, PARP remains bound to the DNA, a phenomenon termed trapping.
T1 sequence (P09874 whole entry, the tested form may be a part): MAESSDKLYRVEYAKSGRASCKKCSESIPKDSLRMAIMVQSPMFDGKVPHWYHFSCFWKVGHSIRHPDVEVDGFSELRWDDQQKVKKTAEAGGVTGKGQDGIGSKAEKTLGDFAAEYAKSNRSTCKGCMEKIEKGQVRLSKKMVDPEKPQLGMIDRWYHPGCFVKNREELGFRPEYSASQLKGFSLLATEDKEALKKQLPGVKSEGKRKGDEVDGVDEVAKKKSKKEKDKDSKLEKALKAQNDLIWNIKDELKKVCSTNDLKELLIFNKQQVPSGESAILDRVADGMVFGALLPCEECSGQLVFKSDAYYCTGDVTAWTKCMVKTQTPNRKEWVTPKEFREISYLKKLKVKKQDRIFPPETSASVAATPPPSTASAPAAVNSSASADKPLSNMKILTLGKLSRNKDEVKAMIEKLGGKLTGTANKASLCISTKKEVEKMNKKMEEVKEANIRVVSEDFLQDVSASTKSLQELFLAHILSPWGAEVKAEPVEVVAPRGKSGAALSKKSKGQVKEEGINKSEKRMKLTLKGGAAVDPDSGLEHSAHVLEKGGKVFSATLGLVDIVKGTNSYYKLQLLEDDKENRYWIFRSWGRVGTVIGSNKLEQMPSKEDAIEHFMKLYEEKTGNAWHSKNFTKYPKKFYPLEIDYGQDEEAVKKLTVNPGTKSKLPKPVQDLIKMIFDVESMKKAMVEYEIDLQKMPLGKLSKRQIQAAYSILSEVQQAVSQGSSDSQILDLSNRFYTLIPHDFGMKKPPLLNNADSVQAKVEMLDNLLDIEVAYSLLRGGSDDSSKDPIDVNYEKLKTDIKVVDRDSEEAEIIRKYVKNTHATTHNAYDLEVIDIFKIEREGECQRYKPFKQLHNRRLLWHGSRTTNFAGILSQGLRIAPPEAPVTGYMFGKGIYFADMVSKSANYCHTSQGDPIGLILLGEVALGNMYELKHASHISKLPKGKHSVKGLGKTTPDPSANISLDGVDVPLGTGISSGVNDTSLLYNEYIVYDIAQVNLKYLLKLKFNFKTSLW
The BPS PARPtrap assay kit for PARP1 (BPS Catalog #80584) was used. A series of dilutions of the compounds were prepared with 10% DMSO in water. The final concentration of DMSO was 1% in all reactions. The enzymatic reactions were conducted in duplicates at room temperature in a 96-well plate. The 45 μl reaction mixtures in PARPtrap buffer 1 containing PARP1 fluorescent labelled oligonucleotide duplex, PARP enzyme and the test compound were incubated at room temperature for 10 min. After pre-incubation, the enzymatic reaction was initiated by adding 5 μl of 10×NAD+ solution. The reaction was incubated for 45-60 min at room temperature.
Fluorescence polarization was measured at an excitation of 470 nm and an emission of 518 nm using a Tecan Infinite M1000 microplate reader. The blank value was subtracted from all other values. Fluorescence polarization was analyzed by Tecan Magellan 6 software and wells containing DNA were used as references. The fluorescence polarization data were then evaluated using GraphPad Prism software. The fluorescence polarization in absence of the compound in each data set was defined as 0% activity (FPo), while the fluorescence polarization in the absence of both NAD+ and the compound was defined as 100% activity (FPt). The percent activity in the presence of the compound was calculated according to the equation % activity=[FP−FPo]/[(FPt−FPo)]×100, where FP=the fluorescence polarization in the presence of the compound.
The values of % activity versus a series of compound concentrations were then plotted using non-linear regression analysis of a sigmoidal dose-response curve generated with the equation Y=B+(T−B)/1+10^((LogEC50−X)×Hill Slope), where Y=percent activity, B=minimum percent activity, T=maximum percent activity, X=logarithm of compound and Hill Slope=slope factor or Hill coefficient. The EC50 value was determined by the concentration causing a half-maximal percent activity. EC50 values are shown in Table C and are presented in ranges, in which “+++”<300 nM, 300 nM≤“++”<3000 nM, and “+”≥3000 nM.

Assay [3] concerns DLD-1 wild-type colorectal adenocarcinoma cells. Kind of assay: Cell viability assay (Cell Titer-Glo), DLD-1 wild-type. To be noted: Homo sapiens, DLD-1, 168 h, 7 days incubation; for inhibition at 10 µM: read-out: DLD-1 wild-type % inh at 10 μM; for IC50: 50 cells/well. The assay is classed as cell-based. As to the method: (§1) Compounds of the present disclosure were tested for their effects on the viability of cancer cells. DLD-1 wild-type and DLD-1 BRCA2(−/−) colorectal adenocarcinoma cells, an isogenic pair of cell lines differing in the presence and absence, respectively, of both BRCA2 alleles, were used. The cells were harvested during the logarithmic growth period, counted, and seeded at 50 cells/well for DLD-1 wild-type and 200 cells/well for DLD-1 BRCA2(−/−) in a 384-well cell culture plate. After seeding, cells were incubated at 37° C., 5% CO2 overnight. Cells were treated with serially diluted test compounds at 10 concentrations (e.g., from 1.5 nM-30 μM) for generation of dose response curves, or at a single concentration. The plate was further incubated for another 7 days in a humidified incubator at 37° C. and 5% CO2. Cell viability was assessed by luminescence measurement after addition of Cell Titer-Glo reagent (Promega, Madison, Wis.) according to the manufacturer's instructions. Cell viability IC50 values were calculated using XLFit, equation 201: y=A+((B−A)/(1+((x/C)^D))), where A=bottom, B=top, C=IC50, and D=slope. IC50 values are shown in Table B and are presented in ranges, in which “+++”<300 nM, 300 nM≤“++”<3000 nM, and “+”≥3000 nM. Values for percent inhibition at 10 μM are also shown in Table B and are presented in ranges, in which “***”≥67%, 33%≤“**”<67%, and “*”<33%. Effects of the test compounds on the viability of other cell lines such as MDA-MB-436, MDA-MB-231, SUM149PT, HCC1395, and UWB1.289 are determined in an analogous method.
(In general: Cellular ATP, detected with luciferase, serves as a proxy for viable cell number.)

For assay [4], the system named is DLD-1 BRCA2(−/−) colorectal adenocarcinoma cells. As to the kind of experiment: Cell viability assay (Cell Titer-Glo), DLD-1 BRCA2(−/−). It is filed as cell-based. To be noted: Homo sapiens, DLD-1, 168 h; 7 days incubation, 200 cells/well. Here is the method:
as §1

In assay [5] the target is T1, PARP1. Kind of assay: PARP1 fluorescence polarization binding assay. To be noted: binding IC50, GST-tagged PARP1 20 nM, PARPi-FL 3 nM. Here is the method:
Compounds of the present disclosure were tested in a PARP1 fluorescence polarization binding assay at Pharmaron (Beijing, P.R.China). In this biochemical assay, binding of test compound to recombinant human PARP1 reduces the amount of binding of a fluorescent probe, and consequently reduces the detected level of fluorescence polarization. Test compound stock solutions were prepared in DMSO and then serially diluted into 10 concentrations by 3-fold dilution in a 384-well plate using a TECAN EVO200. 60 nL of each dilution was transferred to the plate using an Echo550 (Labcyte), and then 10 μL 40 nM GST-tagged PARP1 (BPS Bioscience, Cat #80501), diluted in assay buffer (50 mM Tris pH 8.0, 0.001% Triton X-100, 10 mM MgCl2, 150 mM NaCl), was added to the plate. After a centrifugation at 1000 rpm for 1 min, the assay plate was incubated for 30 min at RT. 10 μL 6 nM PARPi-FL (TOCRIS, Cat #6461), diluted using assay buffer, was then added to the plate. The final concentrations of PARP1 and PARPi-FL were 20 nM and 3 nM, respectively, in a total volume of 20 μL. After a centrifugation at 1000 rpm for 1 min, the assay plate was incubated for 4 h at RT. Samples in each well were read using an Envision instrument (Perkin-Elmer; Ex=480 nm Em=FITC FP-P pol 535 nm & FITC FP-S pol 535 nm). Percent inhibition was calculated from mP values using Inhibition (%)=[1−(mPc−mPL)/(mPH−mPL)]×100%, where mPc, mPL, and mPH are the mP values of test compound, Low controls, and High controls, respectively. Binding IC50 values were calculated using XLFit (equation 201: y=A+((B−A)/(1+((x/C)^D))), where A=bottom, B=top, C=IC50, and D=slope) with a floating top and bottom for curves. Binding IC50 values are shown in Table A and are presented in ranges, in which “+++”<100 nM, 100 nM≤“++”<3000 nM, and “+”≥3000 nM.

Molecules are shown by their SMILES. Counter-ions that a name gives are not always drawn.

Drawing on US20240132449A1, “HETEROCYCLIC COMPOUNDS AND METHODS OF USE THEREOF” (1cBio, Inc., priority 2022, published 2024), this text covers IC50, inhibition and EC50 for ten molecules.

In general, IC50 refers to the point on the concentration scale where inhibition reaches its midpoint. The EC50 is the concentration that produces a half-maximal response. Higher therefore signals a need for much substance.

Chain of recombinant human PARP2 (Q9UGN5 whole entry): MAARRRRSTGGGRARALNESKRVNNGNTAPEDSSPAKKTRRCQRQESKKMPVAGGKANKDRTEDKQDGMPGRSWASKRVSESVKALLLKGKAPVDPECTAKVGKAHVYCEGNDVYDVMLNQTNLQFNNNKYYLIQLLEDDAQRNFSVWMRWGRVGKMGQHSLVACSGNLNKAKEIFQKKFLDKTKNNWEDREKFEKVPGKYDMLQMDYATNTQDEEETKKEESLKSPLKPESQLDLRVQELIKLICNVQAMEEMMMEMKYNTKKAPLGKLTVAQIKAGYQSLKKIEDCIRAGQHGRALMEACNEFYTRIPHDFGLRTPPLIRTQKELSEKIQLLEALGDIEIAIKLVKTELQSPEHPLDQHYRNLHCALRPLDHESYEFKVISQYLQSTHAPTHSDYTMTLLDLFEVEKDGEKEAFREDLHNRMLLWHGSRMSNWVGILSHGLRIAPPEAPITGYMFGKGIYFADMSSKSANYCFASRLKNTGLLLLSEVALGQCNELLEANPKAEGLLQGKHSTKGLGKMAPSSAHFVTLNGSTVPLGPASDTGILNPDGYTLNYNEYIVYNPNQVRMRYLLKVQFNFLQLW

Regarding `CCn1c(=O)[nH]c2cc(CN3CCN(c4ccc(C(=O)NC)nc4C(F)(F)F)CC3)sc2c1=O` [Compound 307], the IC50 in assay [1] is more than 3000 nM; in assay [3], more than 3000 nM; in assay [4], 300 to 3000 nM; in assay [5], less than 100 nM. Besides, the inhibition at 10 µM in assay [1] was 33 to 67%; in assay [3], less than 33%. The molecule further returned an EC50 in assay [2] of 300 to 3000 nM.

Take `CCn1c(=O)[nH]c2cc(CN3CCN(c4ccc(C(=O)NC(CO)CO)nc4C)CC3)sc2c1=O` [Compound 527]: the inhibition at 10 µM was 33 to 67% in assay [1] and less than 33% in assay [3]. This molecule also gave an EC50 in assay [2] of more than 3000 nM. Further, the IC50 in assay [4] is more than 3000 nM; in assay [5], less than 100 nM.

Take `CCn1c(=O)[nH]c2cc(CN3CCN(c4ccc(C(=O)NC)nc4F)CC3)sc2c1=O` [Compound 319]: the values for the inhibition at 10 µM in assay [1] and in assay [3] were 33 to 67% and less than 33%, respectively. This molecule also had a 50% effective concentration (EC50) in assay [2] of less than 300 nM. Further, the IC50 in assay [4] is less than 300 nM; in assay [5], less than 100 nM.

In assay [2], `CCn1c(=O)[nH]c2cc(CN3CCN(c4ccc(C(=O)NC)nc4C)C(=O)C3)sc2c1=O` [Compound 334, 5-[4-({3-ethyl-2,4-dioxo-1H-thieno[3,2-d]pyrimidin-6-yl}methyl)-2-oxopiperazin-1-yl]-N,6-dimethylpyridine-2-carboxamide] displayed an EC50 of more than 3000 nM. In assay [5], this molecule returned a concentration for half-maximal inhibition (IC50) of 100 to 3000 nM.

For the molecule `CCn1c(=O)[nH]c2cc(CN3CCN(c4ccc(C(=O)NC)nc4)CC3)ccc2c1=S` [Compound 40, 5-(4-((3-ethyl-2-oxo-4-thioxo-1,2,3,4-tetrahydroquinazolin-7-yl)methyl)piperazin-1-yl)-N-methylpicolinamide formate], the half-maximal inhibitory concentration (IC50) was more than 3000 nM in assay [1], more than 3000 nM in assay [3], 300 to 3000 nM in assay [4] and less than 100 nM in assay [5]. Moreover, the inhibition at 10 µM in assay [1] is 33 to 67%; in assay [3] it was less than 33%.

Take `CCn1c(=O)[nH]c2cc(CN3CCN(c4ccc(C(=O)NC)nc4C)CC3)c(C#N)cc2c1=S` [Compound 505, 5-(4-((6-cyano-3-ethyl-2-oxo-4-thioxo-1,2,3,4-tetrahydroquinazolin-7-yl)methyl)piperazin-1-yl)-N,6-dimethylpicolinamide trifluoroacetate]: the IC50 in assay [1] was more than 3000 nM; in assay [3] it was more than 3000 nM; in assay [4], 300 to 3000 nM; in assay [5] it was less than 100 nM. In addition, the inhibition at 10 µM is 33 to 67% in assay [1] and less than 33% in assay [3].

Consider `CCn1c(=O)[nH]c2cc(CN3CCN(c4ccc(C(=O)NC5COC5)nc4C)CC3)sc2c1=O` [Compound 323], for which the inhibition at 10 µM in assay [1] was 33 to 67%; in assay [3], less than 33%. In assay [2], the EC50 is more than 3000 nM. The half-inhibitory concentration (IC50) was more than 3000 nM in assay [4] and less than 100 nM in assay [5].

Regarding `CCn1c(=O)[nH]c2cc(CN3CCC(c4ccc(C(=O)NC)nc4C)CC3)ccc2c1=S` [Compound 498, 5-(1-((3-ethyl-2-oxo-4-thioxo-1,2,3,4-tetrahydroquinazolin-7-yl)methyl)piperidin-4-yl)-N,6-dimethylpicolinamide formate], the half-inhibitory concentration (IC50) in assay [1] is more than 3000 nM; in assay [3], more than 3000 nM; in assay [4] it was more than 3000 nM; in assay [5], less than 100 nM. The inhibition at 10 µM in assay [1] and in assay [3] was 33 to 67% each time.

As for `CCn1c(=O)[nH]c2cc(CN3CCN4c5ccc(C(=O)NC)nc5OC[C@H]4C3)sc2c1=O` [Compound 524, (R)-3-((3-ethyl-2,4-dioxo-1,2,3,4-tetrahydrothieno[3,2-d]pyrimidin-6-yl)methyl)-N-methyl-1,2,3,4,4a,5-hexahydropyrazino[1,2-d]pyrido[2,3-b][1,4]oxazine-8-carboxamide], the IC50 in assay [1] was more than 3000 nM; in assay [4] it was more than 3000 nM; in assay [5], less than 100 nM. Further, the inhibition at 10 µM in assay [1] is 33 to 67%; in assay [3], less than 33%.

Regarding `CCN1Cc2ccc(CN3CCN(c4ccc(C(=O)NC)nc4C)CC3)cc2NC1=O` [Compound 202, 5-{4-[(3-ethyl-2-oxo-1,4-dihydroquinazolin-7-yl)methyl]piperazin-1-yl}-N,6-dimethylpyridine-2-carboxamide], the inhibition at 10 µM in assay [1] was 33 to 67%; in assay [3], less than 33%. In addition, the results for the IC50 in assay [3], in assay [4] and in assay [5] were more than 3000 nM, less than 300 nM and less than 100 nM, respectively.
